Measurements reported in ChEMBL document CHEMBL1131087, “New cyclooxygenase-2/5-lipoxygenase inhibitors. 3. 7-tert-butyl-2, 3-dihydro-3,3-dimethylbenzofuran derivatives as gastrointestinal safe antiinflammatory and analgesic agents: variations at the 5 position” (J Med Chem, 1998).

What was measured:
[1] = tested on: Rattus norvegicus; experiment: Inhibition of paw swelling relative to the tebufelone in rat. Value was reported as Carrageenan paw edema index; format: functional
[2] = species: Rattus norvegicus; experiment: Analgesic activity in phenylquinone-induced abdominal constriction assay (PAC); format: functional, Abdomen; parameters: concentration or dose not given beside the values
[3] = target: T1, Polyunsaturated fatty acid 5-lipoxygenase (Homo sapiens, UniProt P09917); experiment: Inhibition of 5-Lipoxygenase (5-LOX)
T1 sequence (P09917 whole entry): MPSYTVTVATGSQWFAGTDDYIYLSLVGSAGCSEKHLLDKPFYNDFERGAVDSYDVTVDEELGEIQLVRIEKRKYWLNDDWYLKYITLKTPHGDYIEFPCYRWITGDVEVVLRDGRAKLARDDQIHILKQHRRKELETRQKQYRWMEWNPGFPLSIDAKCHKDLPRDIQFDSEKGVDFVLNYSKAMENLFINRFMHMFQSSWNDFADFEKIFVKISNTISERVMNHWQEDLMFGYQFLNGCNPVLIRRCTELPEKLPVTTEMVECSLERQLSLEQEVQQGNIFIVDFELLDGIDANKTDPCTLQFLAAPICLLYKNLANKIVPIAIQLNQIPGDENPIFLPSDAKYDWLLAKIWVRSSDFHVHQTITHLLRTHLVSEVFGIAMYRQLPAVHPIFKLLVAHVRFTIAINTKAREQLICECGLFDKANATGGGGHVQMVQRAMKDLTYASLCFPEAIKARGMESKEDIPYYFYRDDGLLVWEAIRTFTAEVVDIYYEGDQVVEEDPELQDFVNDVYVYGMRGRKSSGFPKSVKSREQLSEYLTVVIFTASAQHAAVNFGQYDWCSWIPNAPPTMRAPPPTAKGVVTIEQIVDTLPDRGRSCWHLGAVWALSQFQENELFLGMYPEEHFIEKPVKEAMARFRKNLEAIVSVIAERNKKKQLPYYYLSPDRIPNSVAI

[4] = target: T2, Prostaglandin G/H synthase 2 (Homo sapiens, UniProt P35354)
T2 sequence (P35354 whole entry): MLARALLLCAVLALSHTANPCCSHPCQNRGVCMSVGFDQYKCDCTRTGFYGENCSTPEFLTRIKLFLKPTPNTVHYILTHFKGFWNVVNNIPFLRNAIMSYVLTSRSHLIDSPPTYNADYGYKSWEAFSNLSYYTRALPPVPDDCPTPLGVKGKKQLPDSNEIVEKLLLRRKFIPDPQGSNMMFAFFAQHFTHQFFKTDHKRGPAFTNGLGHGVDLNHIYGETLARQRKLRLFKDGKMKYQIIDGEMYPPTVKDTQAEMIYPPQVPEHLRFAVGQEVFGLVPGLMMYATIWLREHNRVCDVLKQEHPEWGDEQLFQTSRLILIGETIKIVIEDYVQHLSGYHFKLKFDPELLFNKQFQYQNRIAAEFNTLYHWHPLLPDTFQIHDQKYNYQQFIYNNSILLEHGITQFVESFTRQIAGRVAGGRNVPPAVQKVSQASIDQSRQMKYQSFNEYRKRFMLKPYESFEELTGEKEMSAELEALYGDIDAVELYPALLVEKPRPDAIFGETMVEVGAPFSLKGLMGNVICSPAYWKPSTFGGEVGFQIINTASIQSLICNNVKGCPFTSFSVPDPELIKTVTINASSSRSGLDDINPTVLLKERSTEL
Description: Inhibitory activity against prostaglandin G/H synthase 2 (COX-2)

[5] = target: Prostaglandin G/H synthase 1 (Homo sapiens, UniProt P23219)
Prostaglandin G/H synthase 1, sequence (P23219 whole entry): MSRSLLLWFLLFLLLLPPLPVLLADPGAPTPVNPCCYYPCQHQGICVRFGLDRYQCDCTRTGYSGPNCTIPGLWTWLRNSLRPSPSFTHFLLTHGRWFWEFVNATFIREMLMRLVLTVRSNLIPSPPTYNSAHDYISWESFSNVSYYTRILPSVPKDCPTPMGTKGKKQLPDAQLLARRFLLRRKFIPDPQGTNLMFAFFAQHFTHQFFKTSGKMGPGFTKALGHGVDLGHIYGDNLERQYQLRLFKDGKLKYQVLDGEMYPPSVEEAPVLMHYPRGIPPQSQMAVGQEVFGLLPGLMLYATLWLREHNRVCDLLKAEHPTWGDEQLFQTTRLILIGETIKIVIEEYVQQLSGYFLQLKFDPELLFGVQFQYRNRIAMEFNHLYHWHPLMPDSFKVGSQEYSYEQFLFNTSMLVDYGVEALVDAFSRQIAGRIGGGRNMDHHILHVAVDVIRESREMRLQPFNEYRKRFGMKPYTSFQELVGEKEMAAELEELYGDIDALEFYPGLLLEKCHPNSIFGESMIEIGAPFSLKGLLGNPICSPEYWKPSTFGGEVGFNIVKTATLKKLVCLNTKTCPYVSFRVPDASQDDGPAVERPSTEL
Description: Inhibitory activity against prostaglandin G/H synthase 1 (COX-1)

Row | SMILES | CPE index [1] | Inhibition [2] | IC50 [3] | IC50 [4] | IC50 [5]
1 | COC(=O)c1cc(C(C)(C)C)c2c(c1)C(C)(C)CO2 | 0.16 | – | – | – | –
2 | CC(C)(C)c1cc(C(=O)NC2CCCC2)cc2c1OCC2(C)C | 0 | – | – | – | –
3 | CC(C)(C)c1cc(C(=N)N2CCCC2)cc2c1OCC2(C)C | 0.8 | 0% | 30 µM | > 100000 nM | > 100000 nM
4 | CC(C)(C)c1cc(C(=O)c2ccoc2)cc2c1OCC2(C)C | 0.68 | 3% | – | – | –
5 | CC(C)(C)c1cc(C(=O)NC2=NCCS2)cc2c1OCC2(C)C | 0.81 | 65% | – | – | –
6 | CC(C)(C)c1cc(C(=O)O)cc2c1OCC2(C)C | 0.47 | – | – | – | –
7 | Cn1cccc1C(=O)c1cc(C(C)(C)C)c2c(c1)C(C)(C)CO2 | 1.24 | 57% | – | 45 nM | 35 nM
8 | CC(C)(C)c1cc(/C=C\c2cccnc2)cc2c1OCC2(C)C | 0.78 | 45% | – | – | –
9 | CC(C)(C)c1cc(C(=O)NCC(O)CO)cc2c1OCC2(C)C (stereo unspecified) | 0.51 | – | – | – | –
10 | CC(C)(C)c1cc(C(=O)NC2CC2)cc2c1OCC2(C)C | 0.68 | 20% | > 50 µM | 550 nM | 290 nM
11 | CC(C)(C)c1cc(C(=O)N2CCCCC2)cc2c1OCC2(C)C | 0.52 | 34% | – | – | –
12 | CCNC(=O)Nc1cc(C(C)(C)C)c2c(c1)C(C)(C)CO2 | 0.73 | 36% | – | – | –
13 | CN(C)C(=N)c1cc(C(C)(C)C)c2c(c1)C(C)(C)CO2 | 0.47 | – | – | – | –
14 | CC(C)(C)c1cc(C(=O)NCCC2CC2)cc2c1OCC2(C)C | 0.06 | – | – | – | –
15 | CCCCCNC(=O)c1cc(C(C)(C)C)c2c(c1)C(C)(C)CO2 | 0.16 | – | – | 250 nM | 2000 nM
16 | CCN(C(=O)c1cc(C(C)(C)C)c2c(c1)C(C)(C)CO2)C1CC1 | 1.14 | – | – | – | –
17 | CC(C)(C)c1cc(C(=O)c2ccco2)cc2c1OCC2(C)C | 0.7 | 24% | – | – | –
18 | CC(C)(C)c1cc(-c2cn3cc[s+]([O-])c3n2)cc2c1OCC2(C)C (stereo unspecified) | 0.96 | – | – | – | –
19 | CC(C)(C)c1cc(-c2ccco2)cc2c1OCC2(C)C | 0.93 | 7% | – | – | –
20 | CCCNC(=O)Nc1cc(C(C)(C)C)c2c(c1)C(C)(C)CO2 | 0.41 | – | – | – | –
21 | CC(C)(C)c1cc(C(=O)N2CCSCC2)cc2c1OCC2(C)C | 0.71 | 29% | – | – | –
22 | CC(C)(C)c1cc(C(=O)N2CCCC2)cc2c1OCC2(C)C | 0.78 | – | – | – | –
23 | CC(C)(C)c1cc(/C=C(/C(=O)O)c2cccs2)cc2c1OCC2(C)C | 0.76 | 19% | – | – | –
24 | CC(C)(C)c1cc(C=C2CCOC2=O)cc2c1OCC2(C)C | 0.93 | – | 4 µM | 3.5 nM | 45 nM
25 | CC(C)(C)c1cc(C(=O)c2ccsc2)cc2c1OCC2(C)C | 0.62 | 40% | – | – | –
26 | CC1(C)CC(c2cc(C(C)(C)C)c3c(c2)C(C)(C)CO3)=NO1 | 0.56 | 80% | – | 200 nM | 70 nM

Row | SMILES | CPE index [1] | Inhibition [2] | IC50 [3] | IC50 [4] | IC50 [5]
27 | CN(C)CCNC(=O)c1cc(C(C)(C)C)c2c(c1)C(C)(C)CO2 | 0 | – | – | – | –
28 | CCCN(C)C(=O)c1cc(C(C)(C)C)c2c(c1)C(C)(C)CO2 | 0.91 | 36% | – | – | –
29 | Cc1nc(-c2cc(C(C)(C)C)c3c(c2)C(C)(C)CO3)no1 | 0.83 | – | – | – | –
30 | CC(C)(C)c1cc(-c2csc(N=C(N)N)n2)cc2c1OCC2(C)C | 1.38 | 77% | – | 9000 nM | 15000 nM
31 | CC(C)(C)c1cc(C(=O)Nc2nccs2)cc2c1OCC2(C)C | 0.49 | – | – | – | –
32 | CC(C)(C)c1cc(-c2cccs2)cc2c1OCC2(C)C | 0.92 | 52% | 9 µM | 70 nM | 200 nM
33 | CCCN(C(=O)c1cc(C(C)(C)C)c2c(c1)C(C)(C)CO2)C1CC1 | 1.41 | – | – | 4000 nM | 4500 nM
34 | CC(C)(C)c1cc(-c2csc(N)n2)cc2c1OCC2(C)C | 0.26 | – | – | – | –
35 | CC(=O)Nc1cc(C(C)(C)C)c2c(c1)C(C)(C)CO2 | 0.66 | 22% | – | 3500 nM | 3500 nM
36 | CC(C)(C)c1cc(C(=O)Nc2ccccc2)cc2c1OCC2(C)C | 0.01 | – | – | – | –
37 | CCCCNC(=O)c1cc(C(C)(C)C)c2c(c1)C(C)(C)CO2 | 0.46 | – | – | 220 nM | 2500 nM
38 | CC(C)(C)c1cc(-c2cscn2)cc2c1OCC2(C)C | 1.53 | 59% | – | – | –
39 | CC(C)(C)c1cc(/C=C\c2cccs2)cc2c1OCC2(C)C | 0.77 | 13% | 6 µM | 35 nM | 20 nM
40 | CC(C)(C)c1cc(C(=O)NCCO)cc2c1OCC2(C)C | 0.33 | – | – | – | –
41 | CC(C)NC(=O)c1cc(C(C)(C)C)c2c(c1)C(C)(C)CO2 | 1.09 | 43% | – | – | –
42 | CC(C)(C)c1cc(C(=O)c2nccs2)cc2c1OCC2(C)C | 0.75 | 28% | – | – | –
43 | CC(C)(C)c1cc(-c2cn3ccsc3n2)cc2c1OCC2(C)C | 0.81 | 68% | 10 µM | 15 nM | 75 nM
44 | CCCNC(=O)c1cc(C(C)(C)C)c2c(c1)C(C)(C)CO2 | 1.17 | 63% | > 50 µM | 950 nM | 550 nM
45 | Cc1cc(/C=C\c2cc(C(C)(C)C)c3c(c2)C(C)(C)CO3)[nH]n1 | 0.56 | 35% | – | – | –
46 | CC(C)(C)c1cc(-c2cocn2)cc2c1OCC2(C)C | 0.19 | – | – | – | –
47 | CC(C)(C)c1cc(C(=O)NC2CCC2)cc2c1OCC2(C)C | 0 | – | – | – | –
48 | COCCNC(=O)c1cc(C(C)(C)C)c2c(c1)C(C)(C)CO2 | 1.47 | 84% | 50 µM | 30 nM | 1000 nM
49 | CC(C)(C)c1cc(C(=O)NCC2CC2)cc2c1OCC2(C)C | 0.44 | – | – | – | –
50 | CC(C)(C)c1cc(Nc2ccccc2C(=O)O)cc2c1OCC2(C)C | 0.78 | – | – | 4000 nM | 2500 nM
51 | CC(C)(C)c1cc(C(=O)c2cccs2)cc2c1OCC2(C)C | 0.58 | 34% | 10 µM | 38 nM | 45 nM
